Experimental data: patent US8916516B2, “Treatment of fungal and/or protist infections” (AI2 Limited, priority 2005, dated 2014)
Where two headings read alike, the source gives them in different places.

What was measured:
Type in all cases: cell-based
[1] = test system: Candida albicans 6862 (clinical isolate); assay: microbe, parasite or virus in culture
Experimental: (§1) Four compounds were supplied as an aqueous solution, 400 μM. Serial dilutions of each test peptide were prepared in addition to a control, which was a conventional antifungal drug, Amphoteracin B. Amphteracin B is obtained from Invitrogen or Melford laboratories.
(§2) Initial testing of the peptides was carried out against the following organisms: • 1) Aspergillus fumigatus AF293 (culture collection strain NCPF7367) • 2) Candida albicans 6862 (clinical isolate) • 3) Fusarium spp 5889 (clinical isolate) • 4) Fusarium spp 6507 (clinical isolate) • 5) Aspergillus terreus (clinical isolate) • 6) Aspergillus niger (clinical isolate) • 7) Staphylococcus aureus (Oxford strain, which is a standard reference strain used in MIC testing)
(§3) The bacterium S. aureus was tested with each of the peptides as a control. A suspension of each organism in an appropriate growth medium was added to the, dilutions of the peptides in order to give concentration ranges of 40 μM to 0.04 μM for each of the peptides, and 64-0.025 μg/ml for amphotericin B. Fungal strains were tested in RPMI media. RPMI is standard Roswell Park Memorial Institute medium (Morton, H. C., (1970) A survey of Commercially Available Tissue Culture Media. In Vitro 6: 89-108).
(§4) The final inoculum for S. aureus was 5×10^4 cfu/ml. The final inoculum for C. albicans was 2×10^3 cfu/ml. The final inoculum for Aspergillus fumigatus and for Fusarium spp was 2×10^4 cfu/ml.
(§5) Candida and S. aureus plates were read after 24 hrs incubation and the Aspergillus and Fusarium strains read after 48 hrs. The MIC was taken as the lowest drug or compound concentration that caused >80% reduction in growth compared with a drug free control.

[2] = test system: Aspergillus fumigatus AF293 (NCPF7367); assay: microbe, parasite or virus in culture; design: MIC values (>80% reduction) AF, positive control: unit not given beside the values; settings: for MIC values (>80% reduction) AF: Aspergillus fumigatus 293, peptides, Tables 4 and 5
Experimental: as §1, §2, §3, §4, §5
Aspergillus fumigatus 293 (AF); and
FS1-FS4 were obtained from Bristol PHLS (British Public Health Laboratory Service UK). Aspergillus fumigatus 293 is publicly available as culture collection strain NCPF7367 (National Collection of Pathogenic Fungi Public Health Laboratory, Mycological Reference Laboratory Myrtle Road, Kingsdown, Bristol BS2 8EL) The Candida albicans was a clinical isolate obtained by standard means. […]

[3] = test system: Fusarium spp 5889 (clinical isolate); assay: Antifungal MIC broth dilution (Example 1); settings: RPMI, 48 hrs, >80% reduction
Experimental: as §1, §2, §3, §4, §5

[4] = test system: Fusarium spp 6507 (clinical isolate); assay: Antifungal MIC broth dilution (Example 1); settings: RPMI, 48 hrs, >80% reduction
Experimental: as §1, §2, §3, §4, §5

[5] = test system: Aspergillus niger (clinical isolate); assay: microbe, parasite or virus in culture
Experimental: as §1, §2, §3, §5

[6] = test system: Aspergillus terreus (clinical isolate); assay: microbe, parasite or virus in culture
Experimental: as §1, §2, §3, §5

[7] = test system: Staphylococcus aureus (Oxford strain); assay: microbe, parasite or virus in culture
Experimental: as §1, §2, §3
S. aureus was tested in Isosensitest broth. Isosentitest agar is a standard MIC medium used by many hospital labs for bacterial MICs using a disc diffusion method. The reference standard is Oxoid CM471. Also available in broth form, CM473, for the bacterial broth dilution assay method. NCCLS ref M7-A4. Both the NCCLS methods quoted are the standard methods.
as §4, §5

Fusarium solani 1 (FS1) = assay: Antifungal MIC (Example 4); design: MIC values (>80% reduction) FS1, positive control: unit not given beside the values; settings: for MIC values (>80% reduction) FS1: Fusarium solani 1, peptides, Tables 4 and 5
Experimental: (§6) The inventor expanded the work conducted in Example 1 by testing an expanded library of peptides derived from either apolipoprotein B or apolipoprotein E in order to further evaluate polypeptides in accordance with the invention. These experiments were conducted using the following fungal species:
(§7) FS1-FS4 were obtained from Bristol PHLS (British Public Health Laboratory Service UK). Aspergillus fumigatus 293 is publicly available as culture collection strain NCPF7367 (National Collection of Pathogenic Fungi Public Health Laboratory, Mycological Reference Laboratory Myrtle Road, Kingsdown, Bristol BS2 8EL) The Candida albicans was a clinical isolate obtained by standard means.
(§8) The methods used to determine, the IC50 values for each peptide were as described in the Example 1.

Fusarium solani 2 (FS2) = assay: Antifungal MIC (Example 4); design: MIC values (>80% reduction) FS2, positive control: unit not given beside the values; settings: for MIC values (>80% reduction) FS2: Fusarium solani 2, peptides, Tables 4 and 5
Experimental: as §6, §7, §8

Fusarium solani 3 (FS3) = assay: Antifungal MIC (Example 4); design: MIC values (>80% reduction) FS3, positive control: unit not given beside the values; settings: for MIC values (>80% reduction) FS3: Fusarium solani 3, peptides, Tables 4 and 5
Experimental: as §6, §7, §8

Fusarium solani 4 (FS4) = assay: Antifungal MIC (Example 4); design: MIC values (>80% reduction) FS4, positive control: unit not given beside the values; settings: for MIC values (>80% reduction) FS4: Fusarium solani 4, peptides, Tables 4 and 5
Experimental: as §6, §7, §8

[8] = test system: Acanthamoeba polyphaga (trophozoites), Ros strain; assay: Microtitre plate assay against Acanthamoeba trophozoites (Example 2); settings: lowest concentration killing the trophozoite challenge
Source text: The test compounds were screened against the trophozoites of clinical isolates of Acanthamoeba spp. using a microtitre plate assay procedure. The organisms were Acanthamoeba polyphaga. (see for details on the strain and methodology used: Hughes, R. & Kilvington, S. (2001). A comparison of hydrogen peroxide contact lens disinfection systems and solutions against Acanthamoeba polyphaga. Antimicrob. Agents Chemother. 45: 2038-2043.) Acanthamoeba polyphaga Ros strain was used throughout the study. The strain was originally isolated from an unpublished case of acanthamoeba keratitis in the United Kingdom in 1994.
Use of the microliter plate assay enabled the determination of the minimum amoebacidal trophozoite concentration (MATC), which is the minimum amoebacidal trophozoite concentration (μg/ml)=lowest concentration killing the trophozoite challenge […] and also the minimum inhibitory trophozoite concentration (MITC), which is the minimum inhibitory trophozoite concentration (μg/ml)=lowest concentration stopping the trophozoites from dividing or killing about 50% of population. The values may then be used to select drug concentrations for use in time-kill experiments to study the kinetics of Acanthamoeba killing.

fungi = settings: overall statement on the fungi tested
Experimental: as §1, §2
The bacterium S. aureus was tested with each of the peptides as a control. […] RPMI is standard Roswell Park Memorial Institute medium (Morton, H. C., (1970) A survey of Commercially Available Tissue Culture Media. In Vitro 6: 89-108).
as §5, §8

[9] = test system: Candida albicans (CA), clinical isolate; assay: Antifungal MIC (Example 4); settings: peptides, Tables 4 and 5
Experimental: as §6, §7, §8

Compound | antifungal activity (in words) (fungi) | MIC values (>80% reduction) AF [2] [µM] | MIC values (>80% reduction) FS1 (Fusarium solani 1 (FS1)) [µM] | MIC values (>80% reduction) FS2 (Fusarium solani 2 (FS2)) [µM] | MIC values (>80% reduction) FS3 (Fusarium solani 3 (FS3)) [µM] | MIC values (>80% reduction) FS4 (Fusarium solani 4 (FS4)) [µM] | MIC values (>80% reduction) CA [9] [µM] | other results
C[C@@H]1[C@H](O)[C@@H](C)/C=C/C=C/C=C/C=C/C=C/C=C/C=C/[C@H](O[C@@H]2O[C@H](C)[C@@H](O)[C@H](N)[C@@H]2O)C[C@@H]2O[C@](O)(C[C@@H](O)C[C@@H](O)[C@H](O)CC[C@@H](O)C[C@@H](O)CC(=O)O[C@H]1C)C[C@H](O)[C@H]2C(=O)O [Amphotericin B, reference compound] |  |  |  |  |  |  |  | MIC ([1]; Candida albicans, C. albicans 6862, RPMI, read after 24 hrs, >80% reduction in growth, read-out: MIC): 0.6 µg/mL; MIC values (>80% reduction) AF, positive control ([2]; Amphotericin B, fifth of five values, unit not given): 0.04; MIC ([2]; NCPF7367, Aspergillus fumigatus, RPMI, read after 48 hrs, >80% reduction, read-out: MIC): 0.6 µg/mL; MIC ([3]; read-out: MIC): 2.5 µg/mL; MIC ([4]; read-out: MIC): 1.25 µg/mL; MIC ([5]; Aspergillus niger, RPMI, >80% reduction, read-out: MIC): 0.15 µg/mL; MIC ([6]; Aspergillus terreus, RPMI, >80% reduction, read-out: MIC): 1.25 µg/mL; MIC ([7]; Staphylococcus aureus, Staph aureus (Oxford), Isosensitest broth, 24 hrs, read-out: MIC): > 40 µg/mL; MIC values (>80% reduction) FS1, positive control (Fusarium solani 1 (FS1); Amphotericin B, first of five values, unit not given): 0.15; MIC values (>80% reduction) FS2, positive control (Fusarium solani 2 (FS2); Amphotericin B, second of five values, unit not given): 1.25; MIC values (>80% reduction) FS3, positive control (Fusarium solani 3 (FS3); Amphotericin B, third of five values, unit not given): 0.3; MIC values (>80% reduction) FS4, positive control (Fusarium solani 4 (FS4); Amphotericin B, fourth of five values, unit not given): 0.15
Ac-WRKWRKRLLLRKLRKRLL-NH2 [MU_114] | showed antifungal activity |  |  |  |  |  |  | MIC ([1]; 6862 (clinical isolate, 24 h)): >40 µM; MIC ([2]; AF293 (NCPF7367, 48 h)): >40 µM; MIC [3]: 5 µM; MIC [4]: 40 µM; MIC ([5]; clinical isolate): 20 µM; MIC [6]: >40 µM; MIC ([7]; Oxford strain, 24 h): 40 µM; MATC = minimum amoebacidal trophozoite concentration ([8]; listed as MU 114): 98.7 µM; MATC = minimum amoebacidal trophozoite concentration ([8]; listed as MU114): 93.8 µM
FRKFRKRFFFRKFRKRFF (Artficial polypeptide designated MU7) [MU_7] | particularly effective antifungal peptides | >40 | 5 | 2.5 | 5 | 20 | >40 | MATC = minimum amoebacidal trophozoite concentration [8]: 93.1 µM
RRWRKRWRKWRWRKRWRK (Artificial polypeptide designated MU 28) [MU_28, 42] | good antifungal activity | 10 | 0.6 | 0.6 | 1.25 | 2.5 | >40 | 
WRKWRKRWW (Artificial polypeptide designated MU 45) [MU_45, 87; monomer on which MU 4 is based] | ineffective | >40 | 40 | 40 | 40 | >40 | >40 | 
WRWKKKWRKWRWKKKWRK (Artificial polypeptide designated MU 26) [MU_26, 89] | reduced activity | >40 | 5 | 5 | 5 | 10 | >40 | 
WRWRKRWRKWRWRKRWRK (Artificial polypeptide designated MU 27) [MU_27] | good antifungal activity | 5 | 0.6 | 0.6 | 0.6 | 1.25 | 20 | 
WRWRRRWRKWRWRRRWRK (Artificial polypeptide designated MU 25) [MU_25, 88] | reduced activity | 10 | 5 | 5 | 10 | 20 | >40 | 
YRKYRKRYYYRKYRKRYY (Artificial polypeptide designated GIN 41 or MU6) [MU_6] | particularly effective antifungal peptides | >40 | 10 | 5 | 5 | 20 | >40 | 
